{"source": "patent US20040242669A1", "about": "“Method of treating deficits associated with brain injury” (priority 2003, published 2004)", "assay_type_in_all_cases": "in vivo, rat", "key": {"kainate-induced epilepsy": {"system": "kainate-induced epilepsy", "test": "Kainate-induced convulsions (epilepsy)", "settings": "for Latency (s) to the first tonic-clonic seizure / Seizures (total number) / Mortality (%): kainic acid 10 μg/2 μl i.c.v.; for Latency (s) to the first tonic-clonic seizure / Seizures (total number): 30-min observation, mean ± S.E.M.; for Mortality (%): checked 2 h after convulsive agent", "procedure": "(§1) Male rats of the Sprague-Dawley strain (purchased from Charles River, Italy) weighing 280±20 g were used throughout all experiments. The animals were housed two-three to a cage under a constant light-dark cycle (lights on between 8.00 and 20.00) at 21° C. Commercial food and tap water were available ad libitum. All animals were used only once in the behavioral experiments.\nAnother group of animals were implanted under ether anaesthesia with a permanent plastic cannula in the right lateral ventricle (foramen interventriculare, Konig and Klippel A 6360) with another cannula into the right jugular vein. These animals were sacrificed at the end of behavioral procedure and the brains were utilized for biochemical analysis. Data were taken from animals showing no abnormalities at the postmortem examination. All experiments were carried out according to the European Community Council Directive 86/609/ECC and efforts were made to minimize animal suffering and to reduce the number of animals used.\nRopinirole (ropinirole hydrochloride, SmithKline Beecham, Italy) and dihydroergocryptine (DHECP) α-dihydroergocryptine methanesulfonate, Monsanto, Italy) were dissolved in saline and injected subcutaneously (s.c.) at the dose of 0.5 and 1 mg/kg/day for 7 days. In the experiments with kainate-induced convulsions, […], and again at the same time of the intracerebroventricular (i.c.v) injection on kainic acid; Control animals received an injection of saline alone with the same procedure.\nKainic acid (Sigma, USA) was dissolved in saline and injected i.c.v. at the dose of 10 μg/2 μi.\nOver a 30-min observation, the following items were recorded per each animal receiving an i.c.v. injection of kainic acid: latency in s to the first tonic-clonic seizure; total number of seizures, percent rate of mortality (checked 2 h after the administration of the convulsive agent).\nBehavioral scoring of kainate-induced convulsions was started immediately after i.c.v. injection of the drug and proceeded for 30 min. Ropinirole, DHECP or saline were injected twice, 30 min prior and, again, at the same time of the i.c.v. administration of kainic acid."}, "[1]": {"system": "animals with chronic brain occlusive ischemia", "test": "Step-through passive avoidance, chronic brain occlusive ischemia", "settings": "for Latency: median latency to re-enter dark box, max 300 s", "procedure": "as §1\n(§2) A number of animals were subjected to a manipulation of the four major arteries of the brain with a method similar to that described by Pulsinelli et al., Ann. Neurol, 11, 491-498 (1982). Both vertebral arteries were cauterised under sodium pentobarbital anaesthesia and polyethylene cuffs PE-10 were placed loosely around the common carotid arteries without completely interrupting carotid blood flow. Two months after operation, all surviving animals showing no neurological gross abnormalities were admitted to drug treatment. Animals undergoing a sham operation were considered as controls.\n(§3) Ropinirole (ropinirole hydrochloride, SmithKline Beecham, Italy) and dihydroergocryptine (DHECP) α-dihydroergocryptine methanesulfonate, Monsanto, Italy) were dissolved in saline and injected subcutaneously (s.c.) at the dose of 0.5 and 1 mg/kg/day for 7 days. In the experiments with kainate-induced convulsions, ropinirole or DHECP were injected intravenously (i.v.) 30 min prior, and again at the same time of the intracerebroventricular (i.c.v) injection on kainic acid; Control animals received an injection of saline alone with the same procedure.\n(§4) Animals with 2-month chronic brain occlusive ischemia, were subjected to a treatment with ropinirole, DHECP or saline for 7 days. At the end of treatment, the animals were admitted to behavioral testing. Controls were those animals with sham manipulation of brain arteries."}, "[2]": {"system": "animals with chronic brain occlusive ischemia", "test": "Shuttle-box active avoidance acquisition, chronic brain occlusive ischemia", "settings": "for CARs: chronic brain occlusive ischemia (2 months), mean ± S.E.M.", "procedure": "as §1, §2, §3\nAcademic Press, New York, pp59-775, (1981). Briefly, the rats were trained to avoid the unconditioned stimulus (US) of a scrambled electrical foot-shock (0.20 mA) delivered through the grid floor. The conditioned stimulus (CS) was a buzzer presented for 3 s prior to the US. If no escape occurred within 20 s of CS/US presentation, the shock was terminated. A maximum of 30 conditioning trials were given with a variable intertrial interval averaging 60 s. The learning criterion was five consecutive conditioned avoidance responses (CARs). For those animals that reached the criterion in less than 30 trials, the remaining trials until 30 were considered as CARs. Indexes of avoidance behaviour were the total number of CARs and the percent number of learners per group.\nas §4"}, "[3]": {"system": "animals with chronic brain occlusive ischemia", "test": "Open field spontaneous motor activity, chronic brain occlusive ischemia", "settings": "for Ambulation / Defecation / Grooming / Rearing: 5 min open field, mean ± S.E.M.", "procedure": "as §1, §2, §3\nSpontaneous motor activity was scored in a circular open field arena as described by Weijnen and Slangen, Pituitary, Adrenal and the Brain, pp221-235 (1982). Animals were put inside a circular lit-up arena, with the bottom divided into 27 areas of equal size.\nas §4"}, "[4]": {"settings": "kainate-induced seizures, summary of Table 3"}}, "note": "Marks after values point to notes of the source that are not given here."}
{"smiles": "CC(C)C[C@H]1C(=O)N2CCC[C@H]2[C@]2(O)O[C@](NC(=O)[C@@H]3C[C@@H]4c5cccc6[nH]cc(c56)C[C@H]4N(C)C3)(C(C)C)C(=O)N12", "note": "[DHECP, α-dihydroergocryptine methanesulfonate]", "values": [{"measurement": "latency to the first tonic-clonic seizure (effect of treatment, in words)", "setting": "kainate-induced epilepsy; [4]", "result": "did not modify"}, {"measurement": "percent mortality rate (effect of treatment, in words)", "setting": "kainate-induced epilepsy; [4]", "result": "significant decrease"}, {"measurement": "total number of kainate-induced seizures (effect of treatment, in words)", "setting": "kainate-induced epilepsy; [4]", "result": "did not modify"}, {"measurement": "Latency (s) to the first tonic-clonic seizure", "setting": "kainate-induced epilepsy; 0.5 mg/kg injected s.c. twice (30 min prior and at kainic acid)", "result": "56.9 ± 8.5", "unit": "s"}, {"measurement": "Seizures (total number)", "setting": "kainate-induced epilepsy; 0.5 mg/kg injected s.c. twice", "result": "7.8 ± 1.0"}, {"measurement": "Mortality (%)", "setting": "kainate-induced epilepsy; 0.5 mg/kg injected s.c. twice", "result": "10^a %"}, {"measurement": "Latency (s) to the first tonic-clonic seizure", "setting": "kainate-induced epilepsy; 1 mg/kg injected s.c. twice (30 min prior and at kainic acid)", "result": "69.2 ± 6.5", "unit": "s"}, {"measurement": "Seizures (total number)", "setting": "kainate-induced epilepsy; 1 mg/kg injected s.c. twice", "result": "5.7 ± 1.1"}, {"measurement": "Mortality (%)", "setting": "kainate-induced epilepsy; 1 mg/kg injected s.c. twice", "result": "10^a %"}, {"measurement": "Latency", "setting": "[1]; 0.5 mg/kg/day s.c. for 7 days", "result": "46^c,d"}, {"measurement": "Latency", "setting": "[1]; 1 mg/kg/day s.c. for 7 days", "result": "58^d"}, {"measurement": "latency to re-enter the dark-box (effect of treatment, in words)", "setting": "[1]; Table 2", "result": "increased"}, {"measurement": "CARs", "setting": "[2]; 0.5 mg/kg/day s.c. for 7 days", "result": "10.6 ± 1.1^a"}, {"measurement": "CARs", "setting": "[2]; 1 mg/kg/day s.c. for 7 days", "result": "14.1 ± 1.1^a"}, {"measurement": "Learners", "setting": "[2]; chronic brain occlusive ischemia, 0.5 mg/kg/day s.c. for 7 days", "result": "20^b percent"}, {"measurement": "Learners", "setting": "[2]; chronic brain occlusive ischemia, 1 mg/kg/day s.c. for 7 days", "result": "10^b percent"}, {"measurement": "cognitive parameters of the active avoidance test (effect of treatment, in words)", "setting": "[2]; chronic brain occlusive ischemia, Table 2", "result": "No statistically significant change"}, {"measurement": "Ambulation", "setting": "[3]; 0.5 mg/kg/day s.c. for 7 days", "result": "68.9 ± 6.6^a,e"}, {"measurement": "Defecation", "setting": "[3]; 0.5 mg/kg/day s.c. for 7 days", "result": "3.4 ± 0.9^a"}, {"measurement": "Grooming", "setting": "[3]; 0.5 mg/kg/day s.c. for 7 days", "result": "22.2 ± 2.3"}, {"measurement": "Rearing", "setting": "[3]; 0.5 mg/kg/day s.c. for 7 days", "result": "16.4 ± 1.3^e"}, {"measurement": "Ambulation", "setting": "[3]; 1 mg/kg/day s.c. for 7 days", "result": "73.1 ± 5.6^a,e"}, {"measurement": "Defecation", "setting": "[3]; 1 mg/kg/day s.c. for 7 days", "result": "3.7 ± 1.3^a"}, {"measurement": "Grooming", "setting": "[3]; 1 mg/kg/day s.c. for 7 days", "result": "23.3 ± 2.1"}, {"measurement": "Rearing", "setting": "[3]; 1 mg/kg/day s.c. for 7 days", "result": "16.5 ± 1.9^e"}, {"measurement": "ambulation and rearing (effect of treatment, in words)", "setting": "[3]; to a level similar to that of intact controls", "result": "increased"}]}
